The structures appear in SMILES notation.

Chain of Tyrosine-protein kinase Lck (P06239 whole entry): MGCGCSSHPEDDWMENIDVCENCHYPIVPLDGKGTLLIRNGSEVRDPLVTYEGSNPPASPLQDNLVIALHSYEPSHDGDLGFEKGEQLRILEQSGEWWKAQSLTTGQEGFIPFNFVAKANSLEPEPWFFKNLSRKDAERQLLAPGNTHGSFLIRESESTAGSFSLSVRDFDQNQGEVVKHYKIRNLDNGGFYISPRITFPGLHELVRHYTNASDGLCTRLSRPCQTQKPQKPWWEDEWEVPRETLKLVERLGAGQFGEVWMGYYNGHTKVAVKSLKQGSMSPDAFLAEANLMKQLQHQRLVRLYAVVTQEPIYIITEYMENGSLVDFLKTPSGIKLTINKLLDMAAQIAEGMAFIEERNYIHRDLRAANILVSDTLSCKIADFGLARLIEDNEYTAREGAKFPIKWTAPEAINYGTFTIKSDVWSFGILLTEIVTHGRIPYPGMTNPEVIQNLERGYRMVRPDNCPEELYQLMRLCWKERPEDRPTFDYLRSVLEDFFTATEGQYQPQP

This assay addresses Tyrosine-protein kinase Lck (Homo sapiens, UniProt P06239). The assay can be described thus: Tested in vitro for the inhibition of protein-tyrosine kinase p56lck using angiotensin I (1.2 mM) and [gamma-32P]-ATP (50 µM).
Usually IC50 stands for the concentration that inhibits the measured activity by half. A lower IC50 goes with inhibition by little substance. In the case of `Oc1cccc(/C=C/c2cccc(O)c2)c1`, the IC50 came out at 234 µM.

Turning to `C(=C\c1cc(OCc2ccccc2)cc(OCc2ccccc2)c1)/c1ccc(OCc2ccccc2)cc1`, the IC50 is > 2030 µM.

`C(=C\c1ccc(OCc2ccccc2)c(OCc2ccccc2)c1)/c1ccc(OCc2ccccc2)cc1`: the IC50 was > 2030 µM.

As to `C(=C\c1cc(OCc2ccccc2)cc(OCc2ccccc2)c1)/c1cccc(OCc2ccccc2)c1`, the IC50 is > 2030 µM.

For the compound `C(=C\c1cc(OCc2ccccc2)cc(OCc2ccccc2)c1)/c1ccccc1`, the IC50 is > 2030 µM.

Turning to `Oc1cc(O)cc(CCc2cc(O)cc(O)c2)c1`, 487 µM corresponded to half-maximal inhibition (IC50).

With `C(=C\c1ccc(OCc2ccccc2)c(OCc2ccccc2)c1)/c1ccccc1`, the IC50 was > 2030 µM.

Regarding `Oc1cc(O)cc(/C=C/c2cc(O)cc(O)c2)c1`, the midpoint of inhibition, the IC50, lay at 16 µM.

Turning to `Oc1cccc(/C=C/c2ccc(O)c(O)c2)c1`, 58 µM corresponded to half-maximal inhibition (IC50).

As for `C(=C\c1ccc(OCc2ccccc2)c(OCc2ccccc2)c1)/c1cccc(OCc2ccccc2)c1`, the IC50 was > 2030 µM.

`Oc1ccc(/C=C/c2ccc(O)c(O)c2)cc1` returned an IC50 of 19 µM.

`Oc1cc(O)cc(CCc2ccc(O)c(O)c2)c1`: the half-maximal inhibitory concentration (IC50) worked out at 1560 µM.

For the compound `Oc1ccc(/C=C/c2ccc(O)c(O)c2)cc1O`, the IC50 is 74 µM.

Compound `Oc1cccc(/C=C/c2cc(O)cc(O)c2)c1` came in with an IC50 of 17 µM.

`Oc1ccc(/C=C/c2ccccc2)cc1O` [(E)-3,4-STILBENDIOL] came in with an IC50 of 203 µM. This IC50 lies about 12-fold higher than the previous one.

As to `Oc1cc(O)cc(/C=C/c2ccccc2)c1` [PINOSYLVIN], inhibition was half-maximal at 193 µM (IC50).

In turn, `Oc1ccc(/C=C/c2cc(O)cc(O)c2)cc1` [RESVERATROL] registered an IC50 of 112 µM. Compared with the last compound, the IC50 is about 1.7-fold lower.

Source of the values: ChEMBL document CHEMBL1126838 (J Med Chem, 1993).
